Reference: article PMC4685012 (Bioorganic & medicinal chemistry, 2015)
pIC50: −log10 of the molar value.

Key:
A549 cells = test: Cell viability; type: cell-based; conditions: for Antiproliferative activity against A549, in words: A549 cells; for pIC50: Homo sapiens, A549, 72 h, read-out: Anti-proliferative activity IC50, A549
MCF-7 cells = test: Cell viability; type: cell-based; conditions: for pIC50: Homo sapiens, MCF7, 72 h, read-out: Anti-proliferative activity IC50, MCF-7; for Antiproliferative activity against MCF-7, in words: MCF-7 cells
[1] = test system: TNF-α, IL-1α, IL-1β mRNA expression; test: Quantitative RT-PCR of NTHi-induced cytokine mRNA in BEAS-2B cells; type: cell-based, human; conditions: 1 µM, 2 h pretreatment, 1.5 h NTHi, relative to SAHA
NF-κB = NF-κB luciferase assay in NTHi-stimulated BEAS-2B cells; type: cell-based, human
HDAC6 = biological target: T1, HDAC6 (Homo sapiens, UniProt Q9UBN7); test: HDAC6 inhibition, label-free mass spectrometry-based SAMDI assay; type: biochemical; conditions: vs 26e as printed
T1 sequence (Q9UBN7 1-1215): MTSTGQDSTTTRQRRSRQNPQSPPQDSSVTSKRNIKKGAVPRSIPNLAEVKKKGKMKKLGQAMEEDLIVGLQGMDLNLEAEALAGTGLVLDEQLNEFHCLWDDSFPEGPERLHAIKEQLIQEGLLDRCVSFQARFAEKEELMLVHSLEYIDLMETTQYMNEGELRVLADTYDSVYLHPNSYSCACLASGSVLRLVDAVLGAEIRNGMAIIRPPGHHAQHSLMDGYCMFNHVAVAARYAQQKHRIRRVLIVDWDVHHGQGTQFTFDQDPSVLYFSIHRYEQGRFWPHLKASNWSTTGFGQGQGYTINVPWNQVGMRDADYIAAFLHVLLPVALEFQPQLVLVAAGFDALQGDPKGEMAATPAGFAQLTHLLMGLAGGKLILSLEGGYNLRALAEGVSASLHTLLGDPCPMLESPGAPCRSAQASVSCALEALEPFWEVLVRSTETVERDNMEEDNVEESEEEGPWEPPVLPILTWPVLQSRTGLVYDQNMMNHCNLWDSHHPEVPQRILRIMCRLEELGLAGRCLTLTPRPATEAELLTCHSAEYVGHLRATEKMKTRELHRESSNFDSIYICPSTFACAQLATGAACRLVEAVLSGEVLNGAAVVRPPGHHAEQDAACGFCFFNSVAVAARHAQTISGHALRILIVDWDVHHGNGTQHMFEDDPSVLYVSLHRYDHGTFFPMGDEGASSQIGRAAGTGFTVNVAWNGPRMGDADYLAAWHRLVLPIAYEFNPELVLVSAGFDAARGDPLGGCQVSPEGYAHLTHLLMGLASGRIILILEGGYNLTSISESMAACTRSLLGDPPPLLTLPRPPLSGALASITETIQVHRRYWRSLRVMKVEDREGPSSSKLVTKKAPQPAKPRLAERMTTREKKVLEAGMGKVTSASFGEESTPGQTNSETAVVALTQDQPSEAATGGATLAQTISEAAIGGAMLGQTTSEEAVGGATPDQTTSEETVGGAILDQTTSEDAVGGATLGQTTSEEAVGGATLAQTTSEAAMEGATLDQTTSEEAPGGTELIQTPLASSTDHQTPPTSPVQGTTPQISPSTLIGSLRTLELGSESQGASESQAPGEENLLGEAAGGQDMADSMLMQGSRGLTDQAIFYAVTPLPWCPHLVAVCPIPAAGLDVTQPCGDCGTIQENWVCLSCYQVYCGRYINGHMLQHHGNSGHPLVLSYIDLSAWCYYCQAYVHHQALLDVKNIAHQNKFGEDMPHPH

HDAC8 = biological target: T2, HDAC8 (Homo sapiens, UniProt Q9BY41); test: HDAC8 inhibition, label-free mass spectrometry-based SAMDI assay; type: biochemical; conditions: vs 26e as printed
T2 sequence (Q9BY41 1-377): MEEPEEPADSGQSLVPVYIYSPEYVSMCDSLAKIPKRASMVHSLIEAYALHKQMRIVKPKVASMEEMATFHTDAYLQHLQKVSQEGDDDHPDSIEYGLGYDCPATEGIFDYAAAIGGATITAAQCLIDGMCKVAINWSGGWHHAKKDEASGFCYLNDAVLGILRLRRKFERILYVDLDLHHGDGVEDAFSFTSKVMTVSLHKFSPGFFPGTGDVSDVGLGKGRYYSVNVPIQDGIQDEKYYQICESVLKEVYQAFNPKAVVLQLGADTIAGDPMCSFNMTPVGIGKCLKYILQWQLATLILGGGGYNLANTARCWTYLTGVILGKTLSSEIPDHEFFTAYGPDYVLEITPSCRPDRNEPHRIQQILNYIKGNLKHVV

Structure (SMILES)	Antiproliferative activity against A549, in words (A549 cells)	pIC50 (A549 cells)	pIC50 (MCF-7 cells)	Antiproliferative activity against MCF-7, in words (MCF-7 cells)	Suppression of NTHi-induced TNF-α, IL-1α, IL-1β mRNA expression [1]	Effect on NF-κB activation, in words (NF-κB; NTHi infected BEAS-2B cells, 1 µM pre-screen)	NF-κB inhibition IC50 (NF-κB; NTHi-stimulated BEAS-2B cells, luciferase)	Fold more potent against HDAC6 than 26e (HDAC6)	Fold more potent against HDAC8 than 26e (HDAC8) [fold]
CC[C@@H]1OC(=O)[C@@H](C)[C@H](O[C@H]2C[C@@](C)(OC)[C@@H](O)[C@H](C)O2)[C@@H](C)[C@H](O[C@H]2O[C@@H](C)C[C@@H](N(C)C)[C@@H]2O)[C@](C)(O)C[C@H](C)CN(Cc2ccc(-c3cn(CCCCC(=O)NO)nn3)cc2)[C@H](C)[C@H](O)[C@@]1(C)O [Compound 8d, (Azithromycin-(N10-(4-triazolylbenzyl)))-N-hydroxypentanamide]	devoid of antiproliferative activities	< 4.70	< 4.70	devoid of antiproliferative activities					
CC[C@@H]1OC(=O)[C@@H](C)[C@H](O[C@H]2C[C@@](C)(OC)[C@@H](O)[C@H](C)O2)[C@@H](C)[C@H](O[C@H]2O[C@@H](C)C[C@@H](N(C)C)[C@@H]2O)[C@](C)(O)C[C@H](C)CN(Cc2ccc(-c3cn(CCCCCCC(=O)NO)nn3)cc2)[C@H](C)[C@H](O)[C@@]1(C)O [Compound 8f, (Azithromycin-(N10-(4-triazolylbenzyl)))-N-hydroxyheptanamide]					more significantly suppressed				
CC[C@@H]1OC(=O)[C@H](C)[C@@H](O[C@@H]2C[C@](C)(OC)[C@H](O)[C@@H](C)O2)[C@@H](C)[C@@H](O[C@@H]2O[C@H](C)C[C@H](N(C)Cc3ccccc3-c3cn(CCCCCCC(=O)NO)nn3)[C@H]2O)[C@](C)(O)C[C@@H](C)CN(C)[C@H](C)[C@@H](O)[C@]1(C)O [Compound 15b, (Azithromycin-3′-(N-(2-triazolylbenzyl)))-N-hydroxyheptanamide]	devoid of antiproliferative activities	< 4.70	< 4.70	devoid of antiproliferative activities					
CC[C@@H]1OC(=O)[C@H](C)[C@@H](O[C@@H]2C[C@](C)(OC)[C@H](O)[C@@H](C)O2)[C@@H](C)[C@@H](O[C@@H]2O[C@H](C)C[C@H](N(C)Cc3cccc(-c4cn(CCCCCCC(=O)NO)nn4)c3)[C@H]2O)[C@](C)(O)C[C@@H](C)CN(C)[C@H](C)[C@@H](O)[C@]1(C)O [Compound 16b, (Azithromycin-3′-(N-(3-triazolylbenzyl)))-N-hydroxyheptanamide]	potently inhibited			potently inhibited					
CC[C@H]1OC(=O)[C@@H](C)[C@H](O[C@H]2C[C@@](C)(OC)[C@@H](O)[C@H](C)O2)[C@H](C)[C@H](O[C@H]2O[C@@H](C)C[C@@H](N(C)Cc3ccc(-c4cn(CCCC(=O)NO)nn4)cc3)[C@@H]2O)[C@@](C)(O)C[C@H](C)CN(C)[C@@H](C)[C@H](O)[C@@]1(C)O [Compound 17c]	devoid of antiproliferative activities	< 4.70	< 4.70	devoid of antiproliferative activities					
CC[C@H]1OC(=O)[C@H](C)C(=O)[C@H](C)[C@@H](O[C@@H]2O[C@H](C)C[C@H](N(C)Cc3ccccc3-c3cn(CCCCCCC(=O)NO)nn3)[C@H]2O)[C@@](C)(OC)C[C@@H](C)C2=NCCN3C(=O)O[C@@]1(C)[C@H]3[C@H]2C [Compound 24b, (Tricyclic Ketolide-3′-(N-(2-triazolylbenzyl)))-N-hydroxyheptanamide]	devoid of antiproliferative activities	< 4.70	< 4.70	devoid of antiproliferative activities					
CC[C@H]1OC(=O)[C@H](C)C(=O)[C@H](C)[C@@H](O[C@@H]2O[C@H](C)C[C@H](N(C)Cc3cccc(-c4cn(CCCCCC(=O)NO)nn4)c3)[C@H]2O)[C@@](C)(OC)C[C@@H](C)C2=NCCN3C(=O)O[C@@]1(C)[C@H]3[C@H]2C [Compound 25a, (Tricyclic Ketolide-3′-(N-(3-triazolylbenzyl)))-N-hydroxyhexanamide]	non-cytotoxic	< 4.70	< 4.70	non-cytotoxic		suppressing NF-κB activation	no dose-dependent effect		
CC[C@H]1OC(=O)[C@H](C)C(=O)[C@H](C)[C@@H](O[C@@H]2O[C@H](C)C[C@H](N(C)Cc3cccc(-c4cn(CCCCCCC(=O)NO)nn4)c3)[C@H]2O)[C@@](C)(OC)C[C@@H](C)C2=NCCN3C(=O)O[C@@]1(C)[C@H]3[C@H]2C [Compound 25b, (Tricyclic Ketolide-3′-(N-(3-triazolylbenzyl)))-N-hydroxyheptanamide]				potently inhibited				approximately 2 fold	~5
CC[C@H]1OC(=O)[C@H](C)C(=O)[C@H](C)[C@@H](O[C@@H]2O[C@H](C)C[C@H](N(C)Cc3ccc(-c4cn(CCCCCCC(=O)NO)nn4)cc3)[C@H]2O)[C@@](C)(OC)C[C@@H](C)C2=NCCN3C(=O)O[C@@]1(C)[C@H]3[C@H]2C [Compound 26f]					more significantly suppressed				
CC[C@@H]1OC(=O)[C@@H](C)[C@H](O[C@H]2C[C@@](C)(OC)[C@](O)(CN(C)Cc3ccc(-c4cn(CCCCCCC(=O)NO)nn4)cc3)[C@H](C)O2)[C@H](C)[C@H](O[C@@H]2O[C@H](C)C[C@H](N(C)C)[C@H]2O)[C@@](C)(OC)C[C@H](C)C(=O)[C@@H](C)[C@@H](O)[C@@]1(C)O [Compound 38f]	potently inhibited			potently inhibited	more significantly suppressed				
CC[C@H]1OC(=O)[C@@H](C)[C@H](O[C@H]2C[C@@](C)(OC)[C@](O)(CN(C)Cc3ccc(-c4cn(CCCCCCC(=O)NO)nn4)cc3)[C@H](C)O2)[C@H](C)[C@H](O[C@H]2O[C@@H](C)C[C@@H](N(C)C)[C@@H]2O)[C@@](C)(O)C[C@H](C)CN(C)[C@@H](C)[C@H](O)[C@@]1(C)O [Compound 39f, (Azithromycin-4′′-(methylamino)-N(methyl)(4-benzyltriazolyl))-N-hydroxyheptanamide]	non-cytotoxic	< 4.70	< 4.70	non-cytotoxic					
CC[C@@H]1OC(=O)[C@@H](C)[C@H](O[C@@H]2C[C@](C)(OC)[C@@](O)(CN(C)C)[C@@H](C)O2)[C@H](C)[C@H](O[C@@H]2O[C@H](C)C[C@H](N(C)Cc3ccc(-c4cn(CCCCCCC(=O)NO)nn4)cc3)[C@H]2O)[C@@](C)(OC)C[C@H](C)C(=O)[C@@H](C)[C@@H](O)[C@@]1(C)O [Compound 49b, (Clarithromycin-(4′-N-(4-benzyltriazolyl))-4′′-(N,N-dimethylaminomethyl))-N-hydroxyheptanamide]	potently inhibited			potently inhibited					
